{"source": "patent US20230107216A1", "about": "“PANTETHEINE DERIVATIVES AND USES THEREOF” (Comet Therapeutics, Inc., priority 2018, published 2023)", "key": {"HepG2 cells [1]": {"tested_on": "HepG2 cells", "assay": "MitoBiogenesis In-Cell ELISA (COX-I, SDH-A)", "format": "cell-based", "conditions": "Homo sapiens, 168 h, 50 uM, 7 days, read-out: % increase in Mitochondrial Biogenesis", "from_the_text": "We determined the effect of compounds of the present disclosure on the levels of two mitochondrial proteins using MitoBiogenesis™ In-Cell ELISA Kit (Abcam ab110216) according to manufacturer's instructions. The two proteins are each subunits of a different oxidative phosphorylation enzyme complex, one protein being subunit I of Complex IV (COX-1), which is mitochondrial (mt)DNA-encoded, and the other being the 70 kDa subunit of Complex II (SDH-A), which is nuclear (n)DNA-encoded. Complex IV includes several proteins which are encoded in the mitochondrion, while the proteins of Complex II are entirely encoded in the nucleus. HepG2 cells (ATCC, HB-8065) were cultured (5% CO2 at 37° C.) and plated in Poly-D-Lysine 384-Well plate (Corning, 356663) at a density of 40,000 cells/mL in 50 μL. Culture and assay media consisted of DMEM (Gibco, 11995-065) supplemented with 1% Penicillin-Streptomycin and 10% FBS (Hyclone, SV30087.03). Cells were allowed to settle for 30 min at room temperature and further incubated overnight (37° C. and 5% CO2) for adherence. Next day, 50-5 μM of the negative control Chloramphenicol (Selleck, S1677), test compounds (50-10 μM) and vehicle DMSO (0.2%) were added at the recommended volumes to the 384-well plate for 7 days without media change using a Tecan compound dispenser. All the solutions and wash buffers were prepared and dispensed according to manufacturer's volumes for a 384-well plate format. Effects of compounds on mtDNA-encoded protein expression (COX-I) and nuclear DNA-encoded mitochondrial protein expression (SDH-A) were expressed as relative signal (nm) to vehicle of a n=2 per conditions."}, "[2]": {"tested_on": "Pkd1−/− mouse inner medullary collecting duct cells (mIMRFNPKD 5E4)", "assay": "mPKD 3D cyst swelling assay (forskolin-induced)", "format": "cell-based", "conditions": "after 72 hours of forskolin exposure", "method": "Cell model and control compounds. mIMCD3 WT cells were obtained via ATCC and modified to create the mIMRFNPKD 5E4 cell line, which has a CRISPR-Cas mediated knockout for Pkd1 as described SLAS Discov. 2017 September; 22(8):974-984. doi: 10.1177/2472555217716056. Cells were cultured in DMEM/F12 (Sigma)+10% FBS (Sigma)+0.5% Pen/Strep (Gibco)+1% GluMax (Gibco). Control compounds used were forskolin (Calbiochem, 344282), Rapamycin (Selleckchem, S1039) and Staurosporin (Selleckchem, S1421).\nThe 3D mouse cyst swelling assay was performed with Pkd1^−/− mouse inner medullary collecting duct cells (mIMRFNPKD 5E4). The cyst swelling protocol that was used was described previously (SLAS Discov. 2017 September; 22(8):974-984. doi: 10.1177/2472555217716056), with further optimization.\n3D culture and compound exposure. mIMRFNPKD 5E4 cells were mixed with Cyst-Gel (OcellO BV). 15 μL of cell-gel mix was pipetted to 384-well plates (Greiner μClear, Greiner Bio-One B.V.) using a CyBio Felix 96/60 robotic liquid dispenser (Analyik Jena AG). Gel-cell mix was plated at a final cell density of 2250 cells per well. After gel polymerization at 37° C. for 30 minutes, 33 μL culture medium was added to each well. Cells were grown in the gel for 96 hours, after which the cells were co-exposed with forskolin (Calbiochem, 344282) and one the following molecules: reference compound Rapamycin (SelleckChem, S1039), toxic control compound Staurosporin (SelleckChem, S1421) or test compounds.\nSample processing. After 72 hours, cultures were fixed with 4% Formaldehyde (Sigma Aldrich) and simultaneously permeabilized with 0.2% Triton-X100 (Sigma Aldrich) and stained with 0.25 μM rhodamine-phalloidin (Sigma Aldrich) and 0.1% Hoechst 33258 (Sigma Aldrich) in 1×PBS (Sigma Aldrich) for 2 days at 4° C., protected from light. After fixation and staining, plates were washed with 1×PBS, sealed with a Greiner SilverSeal (Greiner Bio-One B.V.) and stored at 4° C. prior to imaging.\nImaging and image analysis. Imaging was done using Molecular Devices ImageXpress Micro XLS (Molecular Devices) with a 4× NIKON objective. For each well around 35 images in the Z-direction were made for both channels, capturing the whole z-plane in each image. Image analysis was performed using Ominer™ software (OcellO BV). Cysts were segmented using detection of Hoechst-stained nuclei and Rhodamine-phalloidin-stained cellular f-actin. Cyst area was determined by calculating for the area in px of each object in every in-focus plain. This was averaged per well. (N represented is number of wells) Fraction of apoptotic nuclei as an indicator of toxicity was calculated as the amount of nuclei without actin signal relative to the total amount of nuclei, both as count-measurements. Statistics was done using KNIME Analytics Platform (Konstanz, Germany, http://www.knime.org/), graphs were prepared in GraphPad Prism 6 (GraphPad Software, La Jolla, Calif.)."}, "HepG2 cells [3]": {"tested_on": "HepG2 cells", "assay": "Mitochondrial membrane potential (MITO-ID MP detection Kit)", "format": "cell-based", "conditions": "Homo sapiens, 168 h, 10 uM, 7 days, read-out: % decrease in Mitochondrial Membrane Potential", "outline": "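Cells plated at 160000 cells/mL in DMEM with 10% FBS and 1% Pen-Strep, adhered overnight at 37° C., 5% CO2. Exposure to test compounds (50-10 μM) or 0.2% DMSO for 7 days without media change; membrane potential measured with MITO-ID MP detection kit per manufacturer.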"}, "[4]": {"assay": "Deuterated and endogenous Coenzyme A in tissues after single and multiple dosing to vitamin B5-deprived mice (LC-MS/MS)", "format": "in vivo, C57BL/6N mice", "method": "Example 22: Determining Deuterated and Endogenous Coenzyme A in Various Tissues after Single and Multiple Dosing of Compound 1216 to Vitamin B5-Deprived Male C57BL/6N Mice\n[…] male mice were placed on a Vitamin B5 deprived diet for 2 weeks prior to the start of dosing with Compound 1216, single or multiple dosing with either IV or oral administration. […]\nThe test item and vehicle were administered to the appropriate animals via intravenous (slow bolus) injection to the tail vein (Groups 1-5). In Group 6 test item was administered via oral gavage. The dose volume for each animal was based on the most recent body weight measurement. The animals were temporarily restrained for dose administration and were not sedated. The dose was given using a disposable needle and syringe (intravenous administration) or a stainless steel tube (oral gavage). The dosing formulations were stirred continuously during dose administration, when possible.\nTissue samples were directly removed after sacrifice, together with plasma and CSF and immediately snap frozen in liquid nitrogen and stored at −80° C. […].\nUltrapure water (UPW) was added to the tissue in a 3:1 ratio (e.g. 1 gr tissue+3 ml UPR) and homogenized for 2 minutes at 30/s with 3 beads using a bead mill. Samples were placed on ice and 200 mg weighed in a 2 ml PP tube. 20 μL 50 mM TCEP was added to the sample and vortexed and placed on ice water for 30 minutes. Subsequently 100 μL Perchloric acid was added and the samples was again vortexed and centrifuged for 5 min at 13000 ref (4° C.). Then 225 μL of the supernatant was transferred to a 1.5 mL PP tube. Then 50 μL 3M KOH was added, vortexed and incubated for 2h on ice water. Then 50 μL 3M HCl was added and again vortexed and centrifuged for 5 min at 13000 rcf (4° C.). 100 μL of the supernatant was transferred to a 1.5 mL PP tube, 150 μL UPW was added, and the samples was again vortexed. Then 200 μL of the supernatant was transferred to a 96-wells plate and the samples were ready for measurement. […]"}, "[5]": {"tested_on": "Peripheral blood mononuclear cells co-cultured with venular endothelial cells (HUVEC) (LPS system)", "assay": "BioMAP LPS system", "format": "cell-based, human", "conditions": "procedure of Example 827"}, "[6]": {"tested_on": "Coronary artery smooth muscle cells (CASM3C system)", "assay": "BioMAP CASM3C system (IL-1β, TNFα, IFNγ)", "format": "cell-based, human", "conditions": "10 uM"}, "[7]": {"tested_on": "Bronchial epithelial cells co-cultured with dermal fibroblast (BF4T system)", "assay": "BioMAP BF4T system (TNFα and IL-4)", "format": "cell-based, human", "conditions": "Homo sapiens, 24 h; 10 uM; procedure of Example 830; read-out: % increase in VCAM-1"}, "[8]": {"tested_on": "Peripheral blood mononuclear cells co-cultured with B-cells (BT system)", "conditions": "1 uM; procedure of Example 829"}, "[9]": {"tested_on": "Dermal fibroblasts (HDF3CGF system)", "assay": "BioMAP HDF3CGF system (IL-1β, TNFα, IFNγ, EGF, bFGF, PDGF-BB)", "format": "cell-based, human"}, "[10]": {"tested_on": "Venular Endothelial cells (HUVEC) (4H system)", "assay": "BioMAP 4H system (IL-4 and histamine)", "format": "cell-based, human", "conditions": "Homo sapiens, HUVEC, 24 h; 1 uM; procedure of Example 826; read-out: % decrease in VEGFRII"}, "[11]": {"tested_on": "Peripheral blood mononuclear cells co-cultured with B-cells (BT system)", "assay": "cells", "conditions": "Homo sapiens, 72 h, read-out: % increase in sIL-6"}, "HepG2 cells [12]": {"tested_on": "HepG2 cells", "assay": "Glucose uptake (Glucose Uptake-Glo)", "format": "cell-based", "conditions": "Homo sapiens, 50 uM, read-out: % increase in Glucose Uptake"}}, "data": [{"smiles": "COC(=O)CCC(=O)SCCNC(=O)CCNC(=O)[C@H](O)C(C)(C)COP1(=O)OCCO1", "note": "[Compound 1308]", "values": [{"measurement": "activation at 50 µM", "setting": "HepG2 cells [1]", "result": "> 5", "unit": "%"}, {"measurement": "% prevention of forskolin-induced cyst swelling", "setting": "[2]; 10 uM", "result": "≥10", "unit": "%"}, {"measurement": "inhibition at 10 µM", "setting": "HepG2 cells [3]", "result": "> 50", "unit": "%"}]}, {"smiles": "[2H]C([2H])([2H])C(COP(=O)(O)O)(C(O)C(=O)NCCC(=O)NCCSC(C)=O)C([2H])([2H])[2H]", "note": "(centres unmarked) [Compound 1216, S-acetyl-4′-phosphopantetheine-D6]", "values": [{"measurement": "Levels of labeled CoA in liver and kidney", "setting": "[4]; multiple IV doses", "result": "high levels of labeled CoA"}, {"measurement": "Presence of deuterated (labelled) CoA in three brain regions and other organs over time", "setting": "[4]; multiple IV doses, up to 24 hours after last dose", "result": "prolonged presence of deuterated (labelled) CoA"}, {"measurement": "Deuterated (labelled) CoA in cerebellum, cerebrum, remainder of the brain, liver, heart and kidney", "setting": "[4]; multiple doses (either 3 or 5, IV and oral) of 102.8 mg/kg every 12 hours, vitamin B5-deprived mice, 15 minutes after last dose", "result": "results in deuterated (labelled) CoA"}]}, {"smiles": "COC(=O)CCC(=O)CC(=O)SCCNC(=O)CCNC(=O)[C@H](O)C(C)(C)COC(C)=O", "note": "[Compound 141, methyl 6-[(2-[3-[(2R)-4-(acetyloxy)-2-hydroxy-3,3-dimethylbutanamido]propanamido]ethyl)sulfanyl]-4,6-dioxohexanoate]", "values": [{"measurement": "% decrease in M-CSF", "setting": "[5]; 1 uM", "result": "≥10", "unit": "%"}, {"measurement": "inhibition at 10 µM", "setting": "[5]; Homo sapiens, HUVEC, 24 h, 10 uM, read-out: % decrease in sPGE2", "result": "≥ 10", "unit": "%"}, {"measurement": "activation at 10 µM", "setting": "[5]; Homo sapiens, HUVEC, 24 h, 10 uM, read-out: % increase in sTNFα", "result": "≥ 10", "unit": "%"}, {"measurement": "% increase in Proliferation", "setting": "[6]; procedure of Example 832", "result": "≥10", "unit": "%"}, {"measurement": "inhibition at 10 µM", "setting": "[6]; Homo sapiens, 24 h, read-out: % decrease in Thrombomodulin", "result": "≥ 10", "unit": "%"}, {"measurement": "activation at 10 µM", "setting": "[7]", "result": "≥ 20", "unit": "%"}, {"measurement": "% decrease in B-cell proliferation", "setting": "[8]", "result": "≥10", "unit": "%"}, {"measurement": "% decrease in Collagen I", "setting": "[9]; 1 uM, procedure of Example 833", "result": "≥10", "unit": "%"}, {"measurement": "% increase in SRB", "setting": "[9]; 10 uM", "result": "≥10", "unit": "%"}, {"measurement": "inhibition at 1 µM", "setting": "[9]; Homo sapiens, Fibroblast, 24 h, 1 uM, read-out: % decrease in Collagen III", "result": "≥ 10", "unit": "%"}, {"measurement": "inhibition at 1 µM", "setting": "[10]", "result": "≥ 20", "unit": "%"}, {"measurement": "activation at 1 µM", "setting": "[11]", "result": "≥ 20", "unit": "%"}, {"measurement": "activation at 50 µM", "setting": "HepG2 cells [12]", "result": "≥ 30", "unit": "%"}, {"measurement": "% prevention of forskolin-induced cyst swelling", "setting": "[2]; 50 uM", "result": "≥10", "unit": "%"}]}]}
